This experiment concerns the target T1, human SCD1 enzyme (Homo sapiens, UniProt O00767).
T1 sequence (O00767 1-359): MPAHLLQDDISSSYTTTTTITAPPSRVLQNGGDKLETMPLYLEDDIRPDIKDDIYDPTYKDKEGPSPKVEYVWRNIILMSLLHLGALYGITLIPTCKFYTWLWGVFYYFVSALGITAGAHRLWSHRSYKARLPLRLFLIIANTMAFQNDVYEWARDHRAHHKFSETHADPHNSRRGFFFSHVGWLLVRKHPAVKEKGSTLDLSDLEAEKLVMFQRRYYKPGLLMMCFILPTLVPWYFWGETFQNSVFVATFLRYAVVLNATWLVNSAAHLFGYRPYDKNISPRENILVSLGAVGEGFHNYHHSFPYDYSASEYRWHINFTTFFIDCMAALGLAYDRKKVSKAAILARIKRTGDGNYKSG
The experiment in a line: Tritiated water release assay (conversion of radiolabeled stearoyl-CoA to oleoyl-CoA). The format is biochemical. The conditions noted are these: 10 μM concentration of test compounds; microsomal SCD1, 3H stearoyl CoA, 37° C. 30 minutes; percent of control reaction; read-out: % Inhibition. As for the experimental part: The in-vitro activity of the compounds of the present invention against stearoyl coenzyme desaturase was determined by following conversion of radiolabeled-stearoyl-CoA to oleoyl-CoA using human SCD1 enzyme using a previously published assay procedure with some modifications (Barbara R Talamo and Konrad Bloch, Analytical Biochemistry, 1969, 29, 300-304). This assay protocol is only illustrative and is not meant to limit to the scope of the present invention.
In this assay the microsomal SCD1 enzyme desaturates its substrate, Stearoyl CoA (purchased from American Radiochemicals Ltd.) which is tritiated at C9 and C10 positions. Test compounds were dissolved in dimethylsulfoxide and tested at 10 μM final concentration. Before substrate addition, the test compound or standard reference compound (conjugated linoleic acid at 100 μM final concentration) were pre-incubated in reaction buffer with the enzyme for 10 minutes at 30° C. with shaking. Reaction buffer was prepared as described in literature (Obukowicz et al. JPET, 1998, 287, 157-166) except that the MgCl2, ATP (purchased from Sigma) and CoA (purchased from Sigma) concentrations were changed to 4.9 mM, 7.2 mM and 0.54 mM respectively. The desaturation reaction was initiated by addition of 0.5 μCi of ^3H stearoyl CoA and incubated at 37° C. for 30 minutes with shaking. A control reaction was set without any test compound/reference inhibitor to capture maximum enzymatic activity in the assay. Inhibition of enzyme activity was calculated as a percent of this control reaction giving maximum catalysis and the results are given in Table 5.
Table 5: Tritiated water release assay at 10 μM substrate concentration *Conjugated Linoleic acid was used as a reference standard
In the case of `CC(=O)Oc1ccc(C#Cc2cnc(N3CCN(C(=O)c4ccccc4C(F)(F)F)CC3)s2)cc1` [Example 53, 4-(2-{2-[4-(2-Trifluoromethylbenzoyl)piperazino]-1,3-thiazol-5-yl}-1-ethynyl)phenyl acetate], the inhibition at 10 µM worked out at 47%. As for `Fc1cccc(C#Cc2ccc(N3CCC(Oc4ccccc4C(F)(F)F)CC3)nn2)c1` [Example 89, 3-[2-(3-Fluorophenyl)-1-ethynyl]-6-[4-(2-trifluoromethylphenoxy)piperidino]pyridazine], the figure is 82%. Consider `CC(C)(C)c1ccc(OCC#Cc2ccc(N3CCN(C(=O)c4ccccc4C(F)(F)F)CC3)nc2)cc1` [Example 10], for which the inhibition at 10 µM is 37%. On to `Oc1ccc(C#Cc2ccc(N3CC(Oc4ccccc4F)C3)nn2)cc1` [Example 67], for which the inhibition at 10 µM stood at 96%. In the case of `O=C(c1ccccc1C(F)(F)F)N1CCN(c2ccc(C#CC3(O)CCCC3)cn2)CC1` [Example 5, 4-{5-[2-(1-Hydroxycyclopentyl)-1-ethynyl]-2-pyridyl}piperazino-2-trifluoromethyl phenylmethanone], the inhibition at 10 µM was 19%. Consider `Oc1ccc(C#Cc2ccc(N3CCC(Oc4ccccc4F)CC3)nn2)cc1` [Example 76, 4-(2-{6-[4-(2-Fluorophenoxy)piperidino]-3-pyridazinyl}-1-ethynyl)phenol], for which the inhibition at 10 µM amounted to 100%. As for `O=C(c1cc(Cl)ccc1Cl)N1CCN(c2ccc(C#CCO)cn2)CC1` [Example 2, 4-[5-(3-Hydroxy-1-propynyl)-2-pyridyl]piperazino-2,5-dichlorophenylmethanone], the inhibition at 10 µM stood at 57%. With `COc1c(F)ccc(C#Cc2ccc(N3CCC(Oc4ccccc4F)CC3)nn2)c1F` [Example 94, 3-[(2,4-Difluoro-3-methoxyphenyl)ethynyl]-6-[4-(2-fluorophenoxy)piperidin-1-yl]pyridazine] the figure was 12%; with `O=C(c1ccccc1C(F)(F)F)N1CCN(c2ccc(C#Cc3ccc(O)c(F)c3)cn2)CC1` [Example 24, 1-{5-[(3-Fluoro-4-hydroxyphenyl)ethynyl]-2-pyridyl}piperazin-4-yl-(2-trifluoromethylphenyl)methanone], 79%; with `N#Cc1cccc(C#Cc2ccc(N3CCN(C(=O)C4CCCC4)CC3)nn2)c1` [Example 54, 3-({6-[4-(Cyclopentylcarbonyl)piperazin-1-yl]pyridazin-3-yl}ethynyl)benzonitrile], 47%. With `CC(=O)Oc1ccc(C#Cc2ccc(N3CCC(Oc4ccccc4F)C3)nn2)cc1` (stereo in doubt) [Example 70, 4-[{6-[(3S)-3-(2-Fluorophenoxy)azolan-1-yl]pyridazin-3-yl}ethynyl]phenyl acetate] the figure was 96%.

As to `O=C(c1ccccc1C(F)(F)F)N1CCN(c2ccc(C#Cc3cccc(O)c3)nn2)CC1` [Example 38, 4-{6-[2-(3-Hydroxyphenyl)-1-ethynyl]-3-pyridazinyl}piperazino-2-trifluoromethyl-phenylmethanone], the inhibition at 10 µM is 99%. As to `Fc1ccccc1OC1CCN(c2ccc(C#Cc3ccc(OCCN4CCOCC4)cc3)nn2)CC1` [Example 79], the inhibition at 10 µM is 37%. In the case of `CCOC(=O)c1ccc(C#Cc2ccc(N3CCN(C(=O)c4ccccc4C(F)(F)F)CC3)nc2)nc1` [Example 44], the inhibition at 10 µM worked out at 37%. Take `CC(=O)Oc1cccc(C#Cc2ccc(N3CCC(Oc4ccccc4F)C3)nn2)c1` (stereo in doubt) [Example 68, 3-(2-{6-[(3S)-3-(2-Fluorophenoxy)azolan-1-yl]-3-pyridazinyl}-1-ethynyl)phenyl acetate]: the inhibition at 10 µM stood at 92%. With `CC(=O)Oc1ccc(C#Cc2ccc(N3CCC(Oc4cc(Cl)ccc4Cl)CC3)nn2)cc1` [Example 92, 4-[{6-[4-(2,5-Dichlorophenoxy)piperidin-1-yl]pyridazin-3-yl}ethynyl]phenyl acetate] the figure was 97%; with `O=C(c1ccccc1C(F)(F)F)N1CCN(c2ccc(C#Cc3ccc(O)cc3)nn2)CC1` [Example 37], 89%.

On to `Fc1ccccc1CN1CCN(c2ccc(C#CC3CCCCO3)nn2)CC1` (stereo not drawn) [Example 58], for which the inhibition at 10 µM was determined as 6%. As for `COC(=O)c1ccc(C#Cc2ccc(N3CCN(C(=O)c4ccccc4C(F)(F)F)CC3)nc2)cc1` [Example 32], the figure is 35%; as for `O=C(O)COc1cccc(C#Cc2ccc(N3CCN(C(=O)c4ccccc4C(F)(F)F)CC3)nc2)c1` [Example 27, 2-[3-(2-{6-[4-(2-Trifluoromethylbenzoyl)piperazino]-3-pyridyl}-1-ethynyl)phenoxy]-acetic acid], 30%. As for `O=C(c1ccccc1C(F)(F)F)N1CCN(c2ncc(C#Cc3cccc(O)c3)cn2)CC1` [Example 43], the figure is 98%; as for `O=C(c1ccccc1C(F)(F)F)N1CCN(c2ccc(C#CCO)nn2)CC1` [Example 3, 4-[6-(3-Hydroxy-1-propynyl)-3-pyridazinyl]piperazino-2-trifluoromethylphenyl-methanone], 51%; as for `O=C(c1ccccc1C(F)(F)F)N1CCN(c2ccc(C#CCOC3CCCC3)cn2)CC1` [Example 9, 4-[5-(3-Cyclopentyloxy-1-propynyl)-2-pyridyl]piperazino-2-trifluoromethylphenyl-methanone], 86%.

For the compound `Oc1cccc(C#Cc2ccc(N3CCC(Oc4ccccc4F)CC3)nn2)c1` [Example 86, 3-(2-{6-[4-(2-Fluorophenoxy)piperidino]-3-pyridazinyl}-1-ethynyl)phenol], the inhibition at 10 µM is 100%. For the compound `O=C(c1ccccc1C(F)(F)F)N1CCN(c2ncc(C#Cc3ccc(O)cc3)cn2)CC1` [Example 42, 4-{5-[2-(4-Hydroxyphenyl)-1-ethynyl]-2-pyrimidinyl}piperazino-2-trifluoromethyl-phenylmethanone], the inhibition at 10 µM is 92%. As for `Oc1ccc(C#Cc2ccc(N3CCC(Oc4ccccc4F)CC3)nn2)cc1F` [Example 82], the figure is 98%. As for `CC(=O)Oc1ccc(C#Cc2ccc(N3CCC(O)(Cc4ccccc4)CC3)nn2)cc1` [Example 61, 4-{[6-(4-Benzyl-4-hydroxypiperidin-1-yl)pyridazin-3-yl]ethynyl}phenyl acetate], the figure is 97%.

For `Oc1cccc(C#Cc2ccc(N3CCC(Oc4ccccc4C(F)(F)F)CC3)nn2)c1` [Example 91, 3-(2-{6-[4-(2-Trifluoromethylphenoxy)piperidino]-3-pyridazinyl}-1-ethynyl)phenol], the inhibition at 10 µM stood at 100%. For `NC(=O)c1cccc(C#Cc2ccc(N3CCC(Oc4cccnc4)CC3)nn2)c1` [Example 96], the inhibition at 10 µM is 30%. As for `O=C(c1ccccc1C(F)(F)F)N1CCN(c2ccc(C#CC(O)C34CC5CC(CC(C5)C3)C4)cn2)CC1` (stereo not drawn) [Example 7, 4-[5-{3-Hydroxy-3-(1-adamantyl)-1-propynyl}-2-pyridyl]piperazino-2-trifluoromethyl-phenylmethanone], the inhibition at 10 µM came to 0.35%.

`CCOC(=O)c1cc(C#Cc2ccc(N3CCN(C(=O)c4ccccc4C(F)(F)F)CC3)nc2)ccc1OC(C)=O` [Example 34]: the inhibition at 10 µM amounted to 29%. Take `O=C(c1ccccc1C(F)(F)F)N1CCN(c2ccc(C#Cc3ccc(F)cc3)nn2)CC1` [Example 39]: the inhibition at 10 µM was determined as 75%.

Turning to `Fc1ccccc1OC1CCN(c2ccc(C#Cc3ccc(OCCN4CCCCC4)cc3)nn2)CC1` [Example 78], the inhibition at 10 µM worked out at 43%.

Usually inhibition stands for the share of the control response that was lost under treatment.

For the origin of these results see patent US20080182851A1, “ACETYLENE DERIVATIVES AS STEAROYL COA DESATURASE INHIBITORS” (Glenmark Pharmaceuticals S.A., priority 2006, published 2008).
